These results are taken from US8299070B2, “Indole compounds and pharmaceutical use thereof” (Japan Tobacco Inc., priority 2009, dated 2012).

pIC50: −log10 of the molar value.

The target in the experiment is T1, hITK enzyme (FLAG-tagged full-length hITK) (Homo sapiens, UniProt Q08881).
T1 construct: strongly expressing FLAG-tagged full-length hITK in Sf9 cells; FLAG; made in house; host or cells: Sf9 insect cells (ITK); Escherichia coli (GST-SLP76 substrate)
T1 sequence (Q08881 1-620): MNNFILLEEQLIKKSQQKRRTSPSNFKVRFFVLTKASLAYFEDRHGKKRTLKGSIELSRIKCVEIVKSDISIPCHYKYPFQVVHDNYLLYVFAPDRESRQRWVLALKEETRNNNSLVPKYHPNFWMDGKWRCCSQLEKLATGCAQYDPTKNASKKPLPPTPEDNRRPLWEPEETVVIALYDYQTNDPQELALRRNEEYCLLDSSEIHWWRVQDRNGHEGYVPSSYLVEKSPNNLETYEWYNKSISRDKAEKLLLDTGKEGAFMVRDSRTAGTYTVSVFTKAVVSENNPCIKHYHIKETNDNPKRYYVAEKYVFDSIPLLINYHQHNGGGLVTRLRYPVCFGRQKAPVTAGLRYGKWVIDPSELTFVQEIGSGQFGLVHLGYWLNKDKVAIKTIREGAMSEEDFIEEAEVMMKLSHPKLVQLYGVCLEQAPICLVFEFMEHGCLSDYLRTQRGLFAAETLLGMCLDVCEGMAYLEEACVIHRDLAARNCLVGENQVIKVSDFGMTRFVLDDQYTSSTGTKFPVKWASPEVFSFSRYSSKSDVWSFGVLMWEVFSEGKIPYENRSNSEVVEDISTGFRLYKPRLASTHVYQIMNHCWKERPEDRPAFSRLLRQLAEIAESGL
As to the kind of experiment: ITK inhibitory activity (HTRF kinase assay, biotinylated GST-SLP76 substrate). It is filed as biochemical. Particulars: IC50 calculated from the 2 test compound concentrations sandwiching 50% ITK inhibitory rate. Summed up: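 Sf9-expressed hITK (50 ng/mL enzyme solution) reacted 10 min at RT in MOPS pH 7.0, 10 mmol/L MgCl2, 1 mmol/L DTT with E. coli SLP76 aa95–175 substrate; substrate solution held 100 µmol/L ATP (6 µmol/L for selected compounds). HTRF 665/620 ratio, blank-corrected; IC50 interpolated between two concentrations bracketing 50% inhibition.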
As a reminder, the pIC50 is the IC50 on a negative log10 scale, so that one unit is a factor of ten. Take `CC(C)OCC(=O)N(C)c1ccc2cc(-c3n[nH]c4c3CCC(C)(C)C4)[nH]c2c1` [Example 56]: the pIC50 was greater than 8.52.

`COCCN(C(=O)CN1CCOC(C)C1=O)c1ccc2cc(-c3n[nH]c4c3CCC(C)(C)C4)[nH]c2c1` (stereo not shown) [Example 265]: the pIC50 is 8.70.

Regarding `CCC(=O)N(C)c1ccc2[nH]c(-c3n[nH]c4c3CCC(C)(C)C4)cc2c1` [Example 340], the pIC50 was 6.89.

On to `CN(C(=O)[C@H]1CCCN1C)c1ccc2cc(-c3n[nH]c4c3CCC(C)(C)C4)[nH]c2c1` [Example 149], for which the pIC50 is 8.00.

For `CN(C(=O)CN1C(=O)CC[C@H]1CO)c1ccc2cc(-c3n[nH]c4c3CCC(C)(C)C4)[nH]c2c1` [Example 160], the pIC50 was 9.00.

`CC(NCCO)C(=O)N(C)c1ccc2cc(-c3n[nH]c4c3CCC(C)(C)C4)[nH]c2c1` (stereo not shown) [Example 376]: the pIC50 was 8.70.

On to `CN(C(=O)CN1C(=O)CC[C@@H]1CO)c1ccc2cc(-c3n[nH]c4c3CCC(C)(C)C4)[nH]c2c1` [Example 177], for which the pIC50 was 8.70.

Consider `CN1CCN(C(=O)c2ccc3cc(-c4n[nH]c5c4CCC(C)(C)C5)[nH]c3c2)CC1` [Example 14], for which the pIC50 is 7.40.

Regarding `CC1(C)CCc2c(-c3cc4ccc(N(CCO)C(=O)CC5CCCCC5)cc4[nH]3)n[nH]c2C1` [Example 235], the pIC50 is 8.10.

Turning to `CC1(C)CCc2c(-c3cc4ccc(N(CCO)C(=O)[C@H]5CC[C@H](O)CC5)cc4[nH]3)n[nH]c2C1` [Example 234], the pIC50 was 7.80.

As to `CC(=O)N(C)c1ccc2cc(-c3n[nH]c4c3CCCC4)[nH]c2c1` [Example 360], the pIC50 was 7.17.

As to `CC1(C)CCc2c(-c3cc4cc(C(N)=O)ccc4[nH]3)n[nH]c2C1` [Example 297], the pIC50 was 7.32.

As for `CN(C(N)=O)c1ccc2cc(-c3n[nH]c4c3CCC(C)(C)C4)[nH]c2c1` [Example 54], the pIC50 was 7.74.

Consider `CCC(=O)N(C)[C@@H](C)C(=O)N(C)c1ccc2cc(-c3n[nH]c4c3CCC(C)(C)C4)[nH]c2c1` [Example 203], for which the pIC50 is 7.92.

On to `CCN(C(=O)C(C)C1CCOCC1)c1ccc2cc(-c3n[nH]c4c3CCC(C)(C)C4)[nH]c2c1` (stereo not shown) [Example 263], for which the pIC50 was 8.15.

In the case of `CO[C@@H](C)C(=O)N(C)c1ccc2cc(-c3n[nH]c4c3CCC(C)(C)C4)[nH]c2c1` [Example 169], the pIC50 is 8.52.

`CN(C(=O)[C@H]1CCCO1)c1ccc2cc(-c3n[nH]c4c3CCC(C)(C)C4)[nH]c2c1` [Example 140]: the pIC50 is 8.70.

In the case of `CCC(=O)N(C)c1ccc2cc(-c3n[nH]c4c3CC[C@@H](C)C4)[nH]c2c1` [Example 354], the pIC50 is 7.80.

`CN(C(=O)CN1CCCCC1=O)c1ccc2cc(-c3n[nH]c4c3CCC(C)(C)C4)[nH]c2c1` [Example 105]: the pIC50 is 8.70.
